Results as given in patent US11591329B2, “Bicyclic heterocycles as FGFR inhibitors” (Incyte Corporation, priority 2019, dated 2023).

target: FGFR3 enzyme (Homo sapiens (Human), UniProt P22607); test: FGFR Enzymatic Assay (peptide phosphorylation, FRET); format: biochemical; settings: pre-incubated for 4 hours; ATP 140 μM; 25° C. for 1 hr
Procedure: The inhibitor potency of the exemplified compounds was measured in an enzyme assay that measures peptide phosphorylation using FRET measurements to detect product formation. Inhibitors were serially diluted in DMSO and a volume of 0.5 μL was transferred to the wells of a 384-well plate. For FGFR3, a 10 μL volume of FGFR3 enzyme (Millipore) diluted in assay buffer (50 mM HEPES, 10 mM MgCl2, 1 mM EGTA, 0.01% Tween-20, 5 mM DTT, pH 7.5) was added to the plate and pre-incubated for a time between 5-10 minutes and up to 4 hours. Appropriate controls (enzyme blank and enzyme with no inhibitor) were included on the plate. The assay was initiated by the addition of a 10 μL solution containing biotinylated EQEDEPEGDYFEWLE peptide substrate (SEQ ID NO: 1) and ATP (final concentrations of 500 nM and 140 μM respectively) in assay buffer to the wells. The plate was incubated at 25° C. for 1 hr. The reactions were ended with the addition of 10 μL/well of quench solution (50 mM Tris, 150 mM NaCl, 0.5 mg/mL BSA, pH 7.8; 30 mM EDTA with Perkin Elmer Lance Reagents at 3.75 nM Eu-antibody PY20 and 180 nM APC-Streptavidin). The plate was allowed to equilibrate for ˜1 hr before scanning the wells on a PheraStar plate reader (BMG Labtech).
GraphPad prism3 was used to analyze the data. The IC50 values were derived by fitting the data to the equation for a sigmoidal dose-response with a variable slope. Y=Bottom+(Top−Bottom)/(1+10^((LogIC50−X)*HillSlope)) where X is the logarithm of concentration and Y is the response.
Table 1 provides IC50 data for compounds of the invention assayed in the FGFR Enzymatic Assay after dilution in assay buffer, added to the plate and pre-incubated for 4 hours. The symbol: “+” indicates an IC50 less than 10 nM; “++” indicates an IC50 greater than or equal to 10 nM but less than 30 nM; “+++” indicates an IC50 greater than or equal to 30 nM but less than 200 nM; and “++++” indicates an IC50 greater than or equal to 200 nM.

FGFR3 enzyme, sequence (P22607 23-806): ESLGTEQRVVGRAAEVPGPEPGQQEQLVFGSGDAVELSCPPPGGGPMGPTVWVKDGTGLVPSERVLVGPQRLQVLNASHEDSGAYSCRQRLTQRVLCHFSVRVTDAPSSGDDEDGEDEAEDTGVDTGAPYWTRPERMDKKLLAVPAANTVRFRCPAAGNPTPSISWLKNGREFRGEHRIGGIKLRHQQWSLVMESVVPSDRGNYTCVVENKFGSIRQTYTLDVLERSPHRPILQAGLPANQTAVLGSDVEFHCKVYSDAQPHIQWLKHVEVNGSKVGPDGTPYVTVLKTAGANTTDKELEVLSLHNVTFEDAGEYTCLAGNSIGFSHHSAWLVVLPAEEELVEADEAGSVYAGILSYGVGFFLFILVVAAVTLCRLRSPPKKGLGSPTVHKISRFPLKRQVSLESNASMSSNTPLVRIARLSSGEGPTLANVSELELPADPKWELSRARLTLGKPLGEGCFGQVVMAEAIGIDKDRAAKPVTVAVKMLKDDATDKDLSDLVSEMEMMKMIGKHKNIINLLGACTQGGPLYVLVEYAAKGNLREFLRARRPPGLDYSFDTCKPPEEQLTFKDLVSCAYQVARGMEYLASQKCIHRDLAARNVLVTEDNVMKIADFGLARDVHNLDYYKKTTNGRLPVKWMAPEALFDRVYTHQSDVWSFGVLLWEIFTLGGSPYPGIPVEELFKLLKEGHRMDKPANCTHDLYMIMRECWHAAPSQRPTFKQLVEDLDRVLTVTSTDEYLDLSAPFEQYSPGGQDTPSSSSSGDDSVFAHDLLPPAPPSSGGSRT

| Compound | IC50 |
| --- | --- |
| Cn1cc(-c2n[nH]c3ccc(N4CCCC(O)C4)nc23)cn1 (centres unmarked) [Example 1, 1-(3-(1-Methyl-1H-pyrazol-4-yl)-1H-pyrazolo[4,3-b]pyridin-5-yl)piperidin-3-ol] | ≥ 200 nM |
| Cn1cc(-c2n[nH]c3ccc(N4CCn5cnc(C(F)(F)F)c5C4)nc23)cn1 [Example 2, 3-(1-Methyl-1H-pyrazol-4-yl)-5-(1-(trifluoromethyl)-5,6-dihydroimidazo[1,5-a]pyrazin-7(8H)-yl)-1H-pyrazolo[4,3-b]pyridine] | < 10 nM |
| Cn1cc(-c2n[nH]c3ccc(N4CCCn5nccc54)nc23)cn1 [Example 3, 5-(6,7-Dihydropyrazolo[1,5-a]pyrimidin-4(5H)-yl)-3-(1-methyl-1H-pyrazol-4-yl)-1H-pyrazolo[4,3-b]pyridine] | ≥ 200 nM |
| CN1CC2CCC(C1=O)N2c1ccc2[nH]nc(-c3cnn(C)c3)c2n1 (centres unmarked) [Example 4, 3-Methyl-8-(3-(1-methyl-1H-pyrazol-4-yl)-1H-pyrazolo[4,3-b]pyridin-5-yl)-3,8-diazabicyclo[3.2.1]octan-2-one] | < 10 nM |
| CN1CCN(c2ccc3[nH]nc(-c4cnn(C)c4)c3n2)C(Cc2ccccc2)C1=O (centres unmarked) [Example 8, 3-Benzyl-1-methyl-4-(3-(1-methyl-1H-pyrazol-4-yl)-1H-pyrazolo[4,3-b]pyridin-5-yl)piperazin-2-one] | 10 to 30 nM |
| CN1CCN(c2ccc3[nH]nc(-c4cnn(C)c4)c3n2)C(C2CCOCC2)C1=O (centres unmarked) [Example 10, 1-Methyl-4-(3-(1-methyl-1H-pyrazol-4-yl)-1H-pyrazolo[4,3-b]pyridin-5-yl)-3-(tetrahydro-2H-pyran-4-yl)piperazin-2-one] | ≥ 200 nM |
| CN1CCN(c2ccc3[nH]nc(-c4cnn(C)c4)c3n2)C(Cc2ccncc2)C1=O (centres unmarked) [Example 11, 1-Methyl-4-(3-(1-methyl-1H-pyrazol-4-yl)-1H-pyrazolo[4,3-b]pyridin-5-yl)-3-(pyridin-4-ylmethyl)piperazin-2-one] | ≥ 200 nM |
| CC(c1ccccc1)C1C(=O)N(C)CCN1c1ccc2[nH]nc(-c3cnn(C)c3)c2n1 (centres unmarked) [Example 12, 1-Methyl-4-(3-(1-methyl-1H-pyrazol-4-yl)-1H-pyrazolo[4,3-b]pyridin-5-yl)-3-(1-phenylethyl)piperazin-2-one] | < 10 nM |
| CC(C)C1C(=O)N(C)CCN1c1ccc2[nH]nc(-c3cnn(Cc4cccnc4)c3)c2n1 (centres unmarked) [Example 16, 3-Isopropyl-1-methyl-4-(3-(1-(pyridin-3-ylmethyl)-1H-pyrazol-4-yl)-1H-pyrazolo[4,3-b]pyridin-5-yl)piperazin-2-one] | < 10 nM |
| CC(C)C1C(=O)N(C)CCN1c1ccc2[nH]nc(-c3cnn(CCN4CCOCC4)c3)c2n1 (centres unmarked) [Example 17, 3-Isopropyl-1-methyl-4-(3-(1-(2-morpholinoethyl)-1H-pyrazol-4-yl)-1H-pyrazolo[4,3-b]pyridin-5-yl)piperazin-2-one] | 10 to 30 nM |
| CC(C)C1C(=O)N(C)CCN1c1ccc2[nH]nc(-c3ccc(N4CCN(C)CC4)c(F)c3)c2n1 (centres unmarked) [Example 18, 4-(3-(3-Fluoro-4-(4-methylpiperazin-1-yl)phenyl)-1H-pyrazolo[4,3-b]pyridin-5-yl)-3-isopropyl-1-methylpiperazin-2-one] | < 10 nM |
| CC(C)C1C(=O)N(C)CCN1c1ccc2[nH]nc(-c3cc4cnccc4s3)c2n1 (centres unmarked) [Example 19, 3-Isopropyl-1-methyl-4-(3-(thieno[3,2-c]pyridin-2-yl)-1H-pyrazolo[4,3-b]pyridin-5-yl)piperazin-2-one] | < 10 nM |
| CC(C)C1C(=O)N(C)CCN1c1ccc2[nH]nc(-c3cn(C)nn3)c2n1 (centres unmarked) [Example 20, 3-Isopropyl-1-methyl-4-(3-(1-methyl-1H-1,2,3-triazol-4-yl)-1H-pyrazolo[4,3-b]pyridin-5-yl)piperazin-2-one] | 30 to 200 nM |
| CC1C(=O)N(C)CCN1c1nc2c(-c3cnn(C)c3)n[nH]c2cc1C#N (centres unmarked) [Example 23, 5-(2,4-Dimethyl-3-oxopiperazin-1-yl)-3-(1-methyl-1H-pyrazol-4-yl)-1H-pyrazolo[4,3-b]pyridine-6-carbonitrile] | 30 to 200 nM |
| CC1C(=O)N(C)CCN1c1nc2c(-c3cnn(C)c3)n[nH]c2cc1-c1ccoc1 (centres unmarked) [Example 25, 4-(6-(Furan-3-yl)-3-(1-methyl-1H-pyrazol-4-yl)-1H-pyrazolo[4,3-b]pyridin-5-yl)-1,3-dimethylpiperazin-2-one] | 30 to 200 nM |
| CC1C(=O)N(C)CCN1c1nc2c(-c3cnn(C)c3)n[nH]c2cc1Cc1ccccc1 (centres unmarked) [Example 26, 4-(6-Benzyl-3-(1-methyl-1H-pyrazol-4-yl)-1H-pyrazolo[4,3-b]pyridin-5-yl)-1,3-dimethylpiperazin-2-one] | 30 to 200 nM |

Other lines, results leading:

| IC50 | Compound |
| --- | --- |
| < 10 nM | CC(C)C1C(=O)N(C)CCN1c1ccc2[nH]nc(-c3cnn(C)c3)c2n1 (centres unmarked) [Example 5, 3-Isopropyl-1-methyl-4-(3-(1-methyl-1H-pyrazol-4-yl)-1H-pyrazolo[4,3-b]pyridin-5-yl)piperazin-2-one] |
| < 10 nM | CCC1C(=O)N(C)CCN1c1ccc2[nH]nc(-c3cnn(C)c3)c2n1 (centres unmarked) [Example 6, 3-Ethyl-1-methyl-4-(3-(1-methyl-1H-pyrazol-4-yl)-1H-pyrazolo[4,3-b]pyridin-5-yl)piperazin-2-one] |
| 10 to 30 nM | CCC1(CC)C(=O)N(C)CCN1c1ccc2[nH]nc(-c3cnn(C)c3)c2n1 [Example 7, 3,3-Diethyl-1-methyl-4-(3-(1-methyl-1H-pyrazol-4-yl)-1H-pyrazolo[4,3-b]pyridin-5-yl)piperazin-2-one] |
| 10 to 30 nM | CN1CCN(c2ccc3[nH]nc(-c4cnn(C)c4)c3n2)C(CC2CC2)C1=O (centres unmarked) [Example 9, 3-(Cyclopropylmethyl)-1-methyl-4-(3-(1-methyl-1H-pyrazol-4-yl)-1H-pyrazolo[4,3-b]pyridin-5-yl)piperazin-2-one] |
| < 10 nM | CN1CCN(c2ccc3[nH]nc(-c4cnn(C)c4)c3n2)C(C2CC2)C1=O (centres unmarked) [Example 13, 3-Cyclopropyl-1-methyl-4-(3-(1-methyl-1H-pyrazol-4-yl)-1H-pyrazolo[4,3-b]pyridin-5-yl)piperazin-2-one] |
| 10 to 30 nM | CC1C(=O)N(C2CC2)CCN1c1ccc2[nH]nc(-c3cnn(C)c3)c2n1 (centres unmarked) [Example 14, 1-Cyclopropyl-3-methyl-4-(3-(1-methyl-1H-pyrazol-4-yl)-1H-pyrazolo[4,3-b]pyridin-5-yl)piperazin-2-one] |
| < 10 nM | CC1CN(c2ccc3[nH]nc(-c4cnn(C)c4)c3n2)C(C)C(=O)N1C (centres unmarked) [Example 15, 1,3,6-Trimethyl-4-(3-(1-methyl-1H-pyrazol-4-yl)-1H-pyrazolo[4,3-b]pyridin-5-yl)piperazin-2-one] |
| 10 to 30 nM | CC1C(=O)N(C)CCN1c1nc2c(-c3cnn(C)c3)n[nH]c2cc1Cl (centres unmarked) [Example 21, 4-(6-Chloro-3-(1-methyl-1H-pyrazol-4-yl)-1H-pyrazolo[4,3-b]pyridin-5-yl)-1,3-dimethylpiperazin-2-one] |
| 30 to 200 nM | Cc1cc2[nH]nc(-c3cnn(C)c3)c2nc1N1CCN(C)C(=O)C1C (centres unmarked) [Example 22, 1,3-Dimethyl-4-(6-methyl-3-(1-methyl-1H-pyrazol-4-yl)-1H-pyrazolo[4,3-b]pyridin-5-yl)piperazin-2-one] |
| 30 to 200 nM | COc1cc2[nH]nc(-c3cnn(C)c3)c2nc1N1CCN(C)C(=O)C1C (centres unmarked) [Example 24, 4-(6-Methoxy-3-(1-methyl-1H-pyrazol-4-yl)-1H-pyrazolo[4,3-b]pyridin-5-yl)-1,3-dimethylpiperazin-2-one] |
